The source of these data is PubChem BioAssay (NCI).

Each structure is given as a SMILES string.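 1) Cells in 96-well plates. 2) Compound, 48 h, 5 concentrations. 3) Linear interpolation between surrounding doses. 4) Unreached endpoint = highest concentration. GI50 marks 50% less growth. TGI denotes the concentration required for complete inhibition of growth.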

Among the test systems are SK-MEL-28 melanoma; HCT-15 colon; OVCAR-5 ovarian; UO-31 renal; LOX IMVI melanoma; SR leukemia; HL-60(TB) leukemia; DU-145 prostate; SK-MEL-5 melanoma; RPMI-8226 leukemia.
Holding throughout (assay): DTP human tumour cell line panel, 48 h

Consider `Cc1c(-c2nc(N)nc(C3CC3)c2C)nc(N)nc1C1CC1`, for which the TGI with SK-MEL-28 melanoma, in the assay with HCT-15 colon, with OVCAR-5 ovarian, in the assay with UO-31 renal, in the assay with LOX IMVI melanoma and with SR leukemia was greater than 100 µM throughout. The TGI with HL-60(TB) leukemia, in the assay with DU-145 prostate, in the assay on SK-MEL-5 melanoma and with RPMI-8226 leukemia was greater than 100 µM each time.

On to `FC(F)(F)c1ccc2c(Nc3cccc(C4CC(c5ccccc5)=NN4c4ccc(Cl)cc4)c3)ccnc2c1` (centres undefined), for which the GI50 in the assay with SK-MEL-28 melanoma is 4.54 µM; in the assay on HCT-15 colon, 1.61 µM; in the assay with OVCAR-5 ovarian, 4.13 µM; in the assay with UO-31 renal, 1.82 µM; with LOX IMVI melanoma it was 1.68 µM; in the assay on SR leukemia, 1.26 µM. Besides, the GI50 is 4.04 µM in the assay on HL-60(TB) leukemia, 3.61 µM in the assay with DU-145 prostate, 8.77 µM in the assay on SK-MEL-5 melanoma and 2.3 µM in the assay on RPMI-8226 leukemia. In addition, the TGI is 18.3 µM in the assay on SK-MEL-28 melanoma; 4.26 µM in the assay on HCT-15 colon; 20.5 µM in the assay on OVCAR-5 ovarian; 9.68 µM in the assay on UO-31 renal; 3.81 µM in the assay with LOX IMVI melanoma; 9.41 µM with SR leukemia. For the same molecule, the TGI came out at 18.8 µM in the assay on HL-60(TB) leukemia, 15.4 µM with DU-145 prostate, 26.5 µM in the assay on SK-MEL-5 melanoma and 6.46 µM in the assay with RPMI-8226 leukemia.

In the case of `CS(=O)(=O)Nc1ccc(-c2ccc3c(NC(=O)C4CC4)n[nH]c3c2)cc1`, the GI50 with SK-MEL-28 melanoma is greater than 25 µM; with HCT-15 colon, greater than 25 µM; in the assay with OVCAR-5 ovarian, greater than 25 µM; in the assay on UO-31 renal, greater than 25 µM; with LOX IMVI melanoma it was greater than 25 µM; with SR leukemia, greater than 21.2 µM. For the same molecule, the GI50 is greater than 16.7 µM in the assay on HL-60(TB) leukemia, greater than 23.8 µM in the assay on DU-145 prostate, greater than 11.9 µM in the assay on SK-MEL-5 melanoma and 13.7 µM in the assay with RPMI-8226 leukemia. In addition, the TGI in the assay on SK-MEL-28 melanoma, in the assay with HCT-15 colon, in the assay on OVCAR-5 ovarian, in the assay with UO-31 renal, in the assay with LOX IMVI melanoma and with SR leukemia was greater than 25 µM each time. The TGI in the assay on HL-60(TB) leukemia, in the assay on DU-145 prostate, with SK-MEL-5 melanoma and in the assay with RPMI-8226 leukemia was greater than 25 µM each time.

With `Cc1ccc([N+](=O)[O-])c2c(NCCCN(C)C)ccnc12`, the TGI in the assay on SK-MEL-28 melanoma, in the assay on HCT-15 colon, in the assay with OVCAR-5 ovarian, with UO-31 renal, in the assay with LOX IMVI melanoma and in the assay on SR leukemia was greater than 100 µM in each case. Further, the total growth inhibition concentration (TGI) in the assay with HL-60(TB) leukemia was greater than 100 µM; in the assay with DU-145 prostate, greater than 100 µM; with SK-MEL-5 melanoma, 72.8 µM; in the assay with RPMI-8226 leukemia, greater than 100 µM.

Take `CCCCCC(C(O)C#N)C(O)(C(F)(F)F)C(F)(F)F` (centres undefined): the TGI in the assay with SK-MEL-28 melanoma, in the assay on HCT-15 colon, with OVCAR-5 ovarian, in the assay with LOX IMVI melanoma, in the assay on SR leukemia and with HL-60(TB) leukemia was greater than 10 µM each time. The TGI in the assay with DU-145 prostate, with SK-MEL-5 melanoma and with RPMI-8226 leukemia was greater than 10 µM in each case.

Turning to `Clc1ccc(OCc2nnc3n2N=C(c2ccc(Cl)cc2Cl)CS3)c(Cl)c1`, the GI50 with SK-MEL-28 melanoma was 22.6 µM; with HCT-15 colon, 12.7 µM; with OVCAR-5 ovarian it was 31.4 µM; with UO-31 renal, 18.2 µM; with LOX IMVI melanoma, 14.1 µM; in the assay on SR leukemia, 17.3 µM. Moreover, the GI50 with HL-60(TB) leukemia is 35.6 µM; in the assay with DU-145 prostate, 33.6 µM; in the assay on SK-MEL-5 melanoma it was 15.5 µM; with RPMI-8226 leukemia, 23.4 µM. The TGI in the assay on SK-MEL-28 melanoma was 57 µM; with HCT-15 colon, 33.2 µM; in the assay on OVCAR-5 ovarian, greater than 100 µM; with UO-31 renal, 47.5 µM; in the assay with LOX IMVI melanoma it was 31 µM; in the assay with SR leukemia, 46.5 µM. Further, the TGI is greater than 100 µM with HL-60(TB) leukemia, greater than 100 µM with DU-145 prostate, 33 µM in the assay with SK-MEL-5 melanoma and 63.7 µM in the assay with RPMI-8226 leukemia.

On to `CC1=C(C)C(=O)O[C@@H]([C@](C)(O)[C@]2(O)CC[C@@]3(O)[C@@H]4C[C@H]5O[C@]56CC=CC(=O)[C@]6(C)[C@H]4CC[C@]23C)C1`, for which the GI50 is 0.233 µM in the assay with SK-MEL-28 melanoma; 0.152 µM with HCT-15 colon; 0.299 µM in the assay on OVCAR-5 ovarian; 0.0957 µM with UO-31 renal; 0.188 µM with LOX IMVI melanoma; 0.0552 µM in the assay with SR leukemia. Moreover, the GI50 with HL-60(TB) leukemia is 0.0412 µM; in the assay with DU-145 prostate it was 0.519 µM; in the assay with SK-MEL-5 melanoma it was 0.269 µM; in the assay on RPMI-8226 leukemia it was 0.0593 µM. In addition, the TGI was 1.92 µM in the assay with SK-MEL-28 melanoma; 1.25 µM with HCT-15 colon; 2.51 µM in the assay on OVCAR-5 ovarian; 1.46 µM in the assay with UO-31 renal; 1.38 µM in the assay with LOX IMVI melanoma; greater than 100 µM with SR leukemia. Also, the TGI in the assay with HL-60(TB) leukemia was found to be 1.48 µM; in the assay with DU-145 prostate, 10.9 µM; with SK-MEL-5 melanoma it was 1.43 µM; in the assay on RPMI-8226 leukemia, 1.78 µM.

Turning to `CC(C)(C)c1nc2c(o1)C(=Nc1ccc(F)cc1)c1ccccc1C2=O`, the TGI with SK-MEL-28 melanoma was 26 µM; with HCT-15 colon, 33.8 µM; with OVCAR-5 ovarian, 34.3 µM; with UO-31 renal, 28.1 µM; in the assay on LOX IMVI melanoma, 13 µM; with SR leukemia, greater than 100 µM. The TGI in the assay on HL-60(TB) leukemia is greater than 44.9 µM; in the assay on DU-145 prostate, 29.4 µM; in the assay on SK-MEL-5 melanoma it was 3.45 µM; with RPMI-8226 leukemia it was greater than 100 µM.

As to `CCn1c(-c2nonc2N)nc2ccc(F)cc21`, the GI50 in the assay with SK-MEL-28 melanoma, with HCT-15 colon, with OVCAR-5 ovarian, in the assay with UO-31 renal, in the assay with LOX IMVI melanoma and in the assay with SR leukemia was greater than 25 µM throughout. Moreover, the GI50 in the assay on HL-60(TB) leukemia, with DU-145 prostate, in the assay with SK-MEL-5 melanoma and in the assay on RPMI-8226 leukemia was greater than 25 µM each time. The TGI in the assay on SK-MEL-28 melanoma, with HCT-15 colon, in the assay with OVCAR-5 ovarian, in the assay on UO-31 renal, in the assay on LOX IMVI melanoma and with SR leukemia was greater than 25 µM throughout. The concentration for total growth inhibition (TGI) in the assay with HL-60(TB) leukemia, in the assay with DU-145 prostate, with SK-MEL-5 melanoma and in the assay on RPMI-8226 leukemia was greater than 25 µM throughout.

Usually TGI stands for the concentration giving total growth inhibition. Higher therefore signals less potent growth arrest. As a reminder, the GI50 is the concentration giving 50% growth inhibition.
